Experiments:
[1] = test system: standard normal pooled plasma; assay: CloFAL assay, heparin studies and heparinase reversal; format: biochemical, human
Text: The assay described here was modified from those of He et al. (1999) and Smith et al. (2003). As compared to that by Smith et al., which evaluates only fibrinolysis, the CloFAL assay permits assessment of coagulability as well. Furthermore, when compared to the global assay of He et al., the CloFAL assay permits testing with a single reagent to evaluate both coagulation and fibrinolysis, rather than requiring (as does that of He et al.) the preparation of two distinct reagents for separate evaluation of the plasma sample. […] Frozen plasma aliquots were thawed in a 37° C. water bath for three minutes. […]
For each patient sample to be analyzed, 75 μL of freeze-thawed or fresh plasma was dispensed into each of three wells in a round-bottom, 96-well, Nunc assay plate (Fisher Scientific, Santa Clara, Calif.), and then pre-warmed at 37° C. for three minutes. […] The plate was then immediately placed in an eight-channel microplate spectrophotometer (PowerWave HT, Bio-Tek Instruments, Winooski, Vt.) for dual kinetic absorbance measurements at 405 nm and 630 nm at 45-second intervals for 3 hours, following an initial five-second mixing step prior to the first reading. The spectrophotometer interfaced with a computer such that all its operations, including continuous analysis of delta-absorbance (405 nm minus 630 nm) data using KC4™ PC software, may be automated. […]

[2] = test system: standard normal pooled plasma; assay: CloFAL assay, altered fibrinolysis studies in treated standard normal pooled plasma; format: biochemical, human; conditions: TAFIa inhibition by PTCI, final plasma concentration 50 μg/mL
Method: Frozen plasma aliquots were thawed in a 37° C. water bath for three minutes. […] Plasma samples (fresh or freeze-thawed) were maintained for up to 30 minutes in an ice-water bath until time of assay. […]
The kinetic absorbance data was exported to Microsoft Excel and absorbance measurements at each time point were averaged for the triplicate runs of each specimen. Using the averaged absorbance for the specimen, the maximum amplitude of rise in absorbance was determined (MA=maximum absorbance minus baseline absorbance, where baseline absorbance was obtained by averaging the third through eighth kinetic readings). […]

Row | Substance | rise in absorbance of the CloFAL curve ([1]; heparin at 2 U/mL in standard normal pooled plasma) | rise in absorbance of the CloFAL curve ([1]; heparin concentrations of as little as 0.1 U/mL) | FI (fibrinolytic index) [2] | duration of the first phase of decline in turbidity in the CloFAL curve [2]
1 | heparin | greatly prevented | prolongation and attenuation | – | –
2 | PTCI: potato tuber carboxypeptidase inhibitor (Sigma-Aldrich), blocks TAFI activation to enhance fibrinolysis (QQHADPICNKPCKTHDDCSGAWFCQACWNSARTCGPYVG; UniProt P01075 1-39, looked up) | – | – | increased | prolonged

Reference: patent US20080268483A1, “Methods for a Global Assay of Coagulation and Fibrinolysis” (The Regents of the University of Colorado, priority 2004, published 2008)
